Results taken from patent publication US9624241B2 (Incyte Corporation, priority 2013, dated 2017).
Counter-ions that a name gives are not always drawn. Like-named read-outs stand apart in the source and are kept apart here.

What was measured:
[1] = biological target: BRD4-BD2 (Homo sapiens (Human), UniProt O60885); test: BRD4 AlphaScreen Assay (Example A2), BRD4-BD2; type: binding
Summary of the method: (§1)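 Displacement of 50 nM biotinylated tetra-acetylated histone H4 peptide from BRD4 BD1 or BD2 (<1 nM) in Tris-HCl pH 7.5 buffer with DTT. Inhibitors serially diluted in DMSO, added first, then incubated 75 min in the dark at room temperature before AlphaScreen read. IC50 fitted from percent control activity versus log concentration.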

[2] = biological target: BRD4-BD1 (Homo sapiens (Human), UniProt O60885); test: BRD4 AlphaScreen Assay (Example A2), BRD4-BD1; type: binding
Summary of the method: as §1

[3] = Assay A2, AlphaScreen, BRD4-BD2, read-out: BRD4 BD-2 enzyme IC50
[4] = Assay A2, AlphaScreen, BRD4-BD1, read-out: BRD4 BD-1 enzyme IC50

Row | SMILES | IC50 [1, 3] [nM] | IC50 [2, 4] [nM] | IC50 [1] [nM] | IC50 [2] [nM] | IC50 ([1]; read-out: BRD4 BD-2 enzyme IC50) [nM]
1 | Cc1noc(C)c1-c1ccc2nc(N3CC(NC(=O)OC(C)(C)C)C3)n3c2c1OC[C@@H]3c1ccccn1 [Example 196, tert-butyl {1-[(4S)-7-(3,5-dimethylisoxazol-4-yl)-4-pyridin-2-yl-4,5-dihydroimidazo[1,5,4-de][1,4]benzoxazin-2-yl]azetidin-3-yl}carbamate] | < 100 | < 100 | – | – | –
2 | Cc1noc(C)c1-c1ccc2[nH]c(=O)n3c2c1OCC3(CN)c1ccccn1 (stereo not drawn) [Example 73, 4-(Aminomethyl)-7-(3,5-dimethylisoxazol-4-yl)-4-pyridin-2-yl-4,5-dihydroimidazo[1,5,4-de][1,4]benzoxazin-2(1H)-one bis(2,2,2-trifluoroacetate)] | < 100 | 100 to 1000 | – | – | –
3 | Cc1noc(C)c1-c1ccc2nc(N3CC(O)C3)n3c2c1OCC3c1cccnc1 (single isomer, unassigned) [Example 160D, 1-[7-(3,5-Dimethylisoxazol-4-yl)-4-pyridin-3-yl-4,5-dihydroimidazo[1,5,4-de][1,4]benzoxazin-2-yl]azetidin-3-ol] | 1000 to 10000 | 1000 to 10000 | – | – | –
4 | Cc1noc(C)c1-c1cc(-c2ccccc2)c2[nH]c(=O)n3c2c1OCC3c1ccccc1 (stereo not drawn) [Example 43, 7-(3,5-Dimethylisoxazol-4-yl)-4,9-diphenyl-4,5-dihydroimidazo[1,5,4-de][1,4]benzoxazin-2(1H)-one] | < 100 | < 100 | – | – | –
5 | Cc1noc(C)c1-c1ccc2nc(N3CC[C@@H](N(C)C(=O)CC#N)C3)n3c2c1OC[C@@H]3c1ccccn1 [Example 152, 2-Cyano-N-{(3R)-1-[(4S)-7-(3,5-dimethylisoxazol-4-yl)-4-pyridin-2-yl-4,5-dihydroimidazo[1,5,4-de][1,4]benzoxazin-2-yl]pyrrolidin-3-yl}-N-methylacetamide] | < 100 | < 100 | – | – | –
6 | Cc1noc(C)c1-c1ccc2[nH]c(=O)n3c2c1OCC3C1CCCCN1S(C)(=O)=O (stereo not drawn) [Example 79, 7-(3,5-dimethylisoxazol-4-yl)-4-[1-(methylsulfonyl)piperidin-2-yl]-4,5-dihydroimidazo[1,5,4-de][1,4]benzoxazin-2(1H)-one] | – | – | 1000 to 10000 | 1000 to 10000 | –
7 | CNC(=O)C1(c2ccccn2)COc2c(-c3c(C)noc3C)ccc3[nH]c(=O)n1c23 (stereo not drawn) [Example 71, 7-(3,5-Dimethylisoxazol-4-yl)-N-methyl-2-oxo-4-pyridin-2-yl-1,2,4,5-tetrahydroimidazo[1,5,4-de][1,4]benzoxazine-4-carboxamide 2,2,2-trifluoroacetate] | – | 100 to 1000 | – | – | < 100
8 | Cc1noc(C)c1-c1ccc2[nH]c(=O)n3c2c1OCC3C1CCCCN1 (single isomer, unassigned) [Example 63A, 7-(3,5-Dimethylisoxazol-4-yl)-4-piperidin-2-yl-4,5-dihydroimidazo[1,5,4-de][1,4]benzoxazin-2(1H)-one 2,2,2-trifluoroacetate] | – | – | 100 to 1000 | 100 to 1000 | –
9 | Cc1noc(CF)c1-c1ccc2[nH]c(=O)n3c2c1OCC3c1ccccn1 (stereo not drawn) [Example 125, 7-[5-(Fluoromethyl)-3-methylisoxazol-4-yl]-4-pyridin-2-yl-4,5-dihydroimidazo[1,5,4-de][1,4]benzoxazin-2(1H)-one trifluoroacetate] | < 100 | 1000 to 10000 | – | – | –
10 | Cc1noc(C)c1-c1ccc2[nH]c(=O)n3c2c1OCC3C1CCCCN1C(=O)NC(C)C (stereo not drawn) [Example 80, 2-[7-(3,5-dimethylisoxazol-4-yl)-2-oxo-1,2,4,5-tetrahydroimidazo[1,5,4-de][1,4]benzoxazin-4-yl]-N-isopropylpiperidine-1-carboxamide] | 1000 to 10000 | 1000 to 10000 | – | – | –
11 | Cc1noc(C)c1-c1cc(-c2ccnc(O)c2)c2[nH]c(=O)n3c2c1OC[C@@H]3c1ccccn1 [Example 260, (4S)-7-(3,5-dimethylisoxazol-4-yl)-9-(2-hydroxypyridin-4-yl)-4-pyridin-2-yl-4,5-dihydroimidazo[1,5,4-de][1,4]benzoxazin-2(1H)-one] | < 100 | 100 to 1000 | – | – | –
12 | Cc1noc(C)c1-c1cc(C#N)c2[nH]c(=O)n3c2c1OCC3c1ccccn1 (stereo not drawn) [Example 269A, 7-(3,5-dimethylisoxazol-4-yl)-2-oxo-4-pyridin-2-yl-1,2,4,5-tetrahydroimidazo[1,5,4-de][1,4]benzoxazine-9-carbonitrile] | < 100 | < 100 | – | – | –
13 | Cc1noc(C)c1-c1ccc2nc(C3=CCNC3)n3c2c1OC[C@@H]3c1ccccn1 [Example 105, (4S)-2-(2,5-dihydro-1H-pyrrol-3-yl)-7-(3,5-dimethylisoxazol-4-yl)-4-pyridin-2-yl-4,5-dihydroimidazo[1,5,4-de][1,4]benzoxazine] | < 100 | < 100 | – | – | –
14 | Cc1noc(C)c1-c1ccc2[nH]c(=O)n3c2c1OCC3c1cccnc1C#N (racemic) [Example 126, 3-[7-(3,5-Dimethylisoxazol-4-yl)-2-oxo-1,2,4,5-tetrahydroimidazo[1,5,4-de][1,4]benzoxazin-4-yl]pyridine-2-carbonitrile] | < 100 | 100 to 1000 | – | – | –

Now from value to compound, other results behind:

Row | IC50 [1, 3] [nM] | IC50 [2, 4] [nM] | SMILES | IC50 [1] [nM] | IC50 [2] [nM] | IC50 ([1]; read-out: BRD4 BD-2 enzyme IC50) [nM]
15 | < 100 | < 100 | COCC(=O)NCc1cc(-c2c(C)noc2C)c2c3c1[nH]c(=O)n3[C@@H](c1ccccn1)CO2 [Example 140, N-{[(4S)-7-(3,5-Dimethylisoxazol-4-yl)-2-oxo-4-pyridin-2-yl-1,2,4,5-tetrahydroimidazo[1,5,4-de][1,4]benzoxazin-9-yl]methyl}-2-methoxyacetamide] | – | – | –
16 | < 100 | < 100 | CCS(=O)(=O)NC1CN(c2nc3ccc(-c4c(C)noc4C)c4c3n2[C@@H](c2ccccn2)CO4)C1 [Example 238, N-{1-[(4S)-7-(3,5-dimethylisoxazol-4-yl)-4-pyridin-2-yl-4,5-dihydroimidazo[1,5,4-de][1,4]benzoxazin-2-yl]azetidin-3-yl}ethanesulfonamide] | – | – | –
17 | < 100 | < 100 | Cc1noc(C)c1-c1ccc2[nH]c(=S)n3c2c1OCC3c1ccccn1 (stereo not drawn) [Example 255, 7-(3,5-Dimethylisoxazol-4-yl)-4-pyridin-2-yl-4,5-dihydroimidazo[1,5,4-de][1,4]benzoxazine-2(1H)-thione] | – | – | –
18 | 100 to 1000 | 1000 to 10000 | Cc1noc(C)c1-c1cc(C)c2[nH]c(=O)n3c2c1OCC3c1ccccn1 (stereo not drawn) [Example 268, 7-(3,5-dimethylisoxazol-4-yl)-9-methyl-4-pyridin-2-yl-4,5-dihydroimidazo[1,5,4-de][1,4]benzoxazin-2(1H)-one] | – | – | –
19 | < 100 | < 100 | Cc1noc(C)c1-c1ccc2[nH]c(=O)n3c2c1OCC3c1cccnc1CN (stereo not drawn) [Example 130, 4-[2-(Aminomethyl)pyridin-3-yl]-7-(3,5-dimethylisoxazol-4-yl)-4,5-dihydroimidazo[1,5,4-de][1,4]benzoxazin-2(1H)-one bis(trifluoroacetate)] | – | – | –
20 | < 100 | < 100 | Cc1noc(C)c1-c1ccc2nc([C@@H](O)CO)n3c2c1OC[C@@H]3c1ccccn1 [Example 89, (1R)-1-[(4S)-7-(3,5-Dimethylisoxazol-4-yl)-4-pyridin-2-yl-4,5-dihydroimidazo[1,5,4-de][1,4]benzoxazin-2-yl]ethane-1,2-diol] | – | – | –
21 | < 100 | 100 to 1000 | Cc1noc(C)c1-c1cc(CNC(=O)NC(C)C)c2[nH]c(=O)n3c2c1OC[C@@H]3c1ccccn1 [Example 142, N-{[(4S)-7-(3,5-Dimethylisoxazol-4-yl)-2-oxo-4-pyridin-2-yl-1,2,4,5-tetrahydroimidazo[1,5,4-de][1,4]benzoxazin-9-yl]methyl}-N′-isopropylurea] | – | – | –
22 | < 100 | 100 to 1000 | CCOC(=O)/C=C/c1cc(-c2c(C)noc2C)c2c3c1[nH]c(=O)n3[C@@H](c1ccccn1)CO2 [Example 86, ethyl (2E)-3-[(4S)-7-(3,5-dimethylisoxazol-4-yl)-2-oxo-4-pyridin-2-yl-1,2,4,5-tetrahydroimidazo[1,5,4-de][1,4]benzoxazin-9-yl]acrylate 2,2,2-trifluoroacetate] | – | – | –
23 | < 100 | < 100 | COC(=O)c1ncccc1C1COc2c(-c3c(C)noc3C)ccc3[nH]c(=O)n1c23 (racemic) [Example 132, Methyl 3-[7-(3,5-dimethylisoxazol-4-yl)-2-oxo-1,2,4,5-tetrahydroimidazo[1,5,4-de][1,4]benzoxazin-4-yl]pyridine-2-carboxylate] | – | – | –
24 | < 100 | < 100 | Cc1noc(C)c1-c1ccc2nc(C3CCN(S(C)(=O)=O)C3)n3c2c1OC[C@@H]3c1ccccn1 (mixture of isomers) [Example 115, (4S)-7-(3,5-dimethylisoxazol-4-yl)-2-[1-(methylsulfonyl)pyrrolidin-3-yl]-4-pyridin-2-yl-4,5-dihydroimidazo[1,5,4-de][1,4]benzoxazine (mixture of diastereomers)] | – | – | –
25 | < 100 | < 100 | CC(=O)N1CCC(c2nc3ccc(-c4c(C)noc4C)c4c3n2[C@@H](c2ccccn2)CO4)C1 (single isomer, unassigned; diastereomer 1) [Example 113A] | – | – | –
26 | < 100 | < 100 | Cc1noc(C)c1-c1ccc2[nH]c(=O)n3c2c1OCC3c1cccc[n+]1[O-] (stereo not drawn) [Example 16, 7-(3,5-Dimethylisoxazol-4-yl)-4-(1-oxidopyridin-2-yl)-4,5-dihydroimidazo[1,5,4-de][1,4]benzoxazin-2(1H)-one] | – | – | –
27 | 100 to 1000 | 1000 to 10000 | Cc1noc(CO)c1-c1ccc2[nH]c(=O)n3c2c1OCC3c1ccccn1 (racemic) [Example 124, 7-[5-(Hydroxymethyl)-3-methylisoxazol-4-yl]-4-pyridin-2-yl-4,5-dihydroimidazo[1,5,4-de][1,4]benzoxazin-2(1H)-one] | – | – | –
